A word on the IC50: it is the concentration that inhibits the measured activity by half.

The structures appear in SMILES notation.

hROMK (hKir1.1), sequence (P48048 whole entry): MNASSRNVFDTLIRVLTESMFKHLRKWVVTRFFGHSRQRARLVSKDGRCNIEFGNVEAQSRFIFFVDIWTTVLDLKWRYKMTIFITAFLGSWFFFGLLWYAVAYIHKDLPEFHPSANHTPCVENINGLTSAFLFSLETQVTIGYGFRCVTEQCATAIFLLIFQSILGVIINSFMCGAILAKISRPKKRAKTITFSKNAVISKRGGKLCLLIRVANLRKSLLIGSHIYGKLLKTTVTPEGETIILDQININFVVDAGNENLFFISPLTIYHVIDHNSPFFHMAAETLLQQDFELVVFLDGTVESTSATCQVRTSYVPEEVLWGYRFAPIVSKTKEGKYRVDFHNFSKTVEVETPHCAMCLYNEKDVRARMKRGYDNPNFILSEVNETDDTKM

For the assay, the target named is hROMK (hKir1.1) (Homo sapiens (Human), UniProt P48048). Nature of the assay: Thallium Flux Assay (ROMK channel functional thallium flux, FLIPR-Tetra). Type of assay: cell-based. The settings on record: HEK293 cells stably expressing hROMK (hKir1.1); unit not given in Table 4 (IC50 potencies less than 1 μM); read-out: ROMK TI IC50. The method, then:
Cell Culture Conditions—HEK293 cells stably expressing hROMK (hKir1.1) were grown at 37° C. in a 10% CO2 humidified incubator in complete growth media: Dulbecco's Modified Eagle Medium supplemented with non-essential amino acids, Penicillin/Streptomycin/Glutamine, G418 and FBS. At >80% confluency, the media was aspirated from the flask and rinsed with 10 mL calcium/magnesium-free PBS. […] To dislodge the cell, the side of the flask was gently banged with one's hand. The cells completely titrated and then the cells were transferred to 25 mL complete media, centrifuged at 1,500 rpm for 6 min followed by resuspension in complete growth media and determine cell concentration. […] Under ideal growth conditions and appropriate tissue culture practices, this cell line is stable for 40-45 passages.
FluxOR Kit Components (Invitrogen F10017)
• FluxOR™ Reagent (Component A) • FluxOR™ Assay Buffer (Component B)—10× Concentrate • PowerLoad™ Concentrate (Component C)—100× Concentrate • Probenecid (Component D)—Lyophilized sample is kept at −20° C. Water soluble, 100× after solubilization in 1 mL water. […] Store at 4° C. • Thallium sulfate (Tl2SO4) Concentrate (Component G)—50 mM in water. […] Can be stored at room temperature • Stimulant Buffer (prepared at 5× final concentration in 1× FluxOR™Chloride-Free Buffer): 7.5 mM thallium sulfate and 0.75 mM potassium sulfate (to give a final assay concentration of 3 mM Thallium/0.3 mM potassium). Store at 4° C. when not in use. If kept sterile, this solution is good for months.
• 1. Seed HEK-hKir1.1 cells (50 μl at 20,000 cells/well) in 384-well PDL coated Microplates • 2. Allow cells to adhere overnight in humidified 37° C./10% CO2 incubator • 3. Completely remove cell growth media from microplate and replace with 25 μl loading buffer • 4. Incubate Microplate at room temperature, protected form light, for 90 min • 5. Remove loading buffer and replace with 25 μl 1× Assay Buffer±test compound. • 6. Incubate microplate at room temperature, protected from light, for 30 min • 7. […] Excitation=400 nm, Emission=460 & 580 nm. Collect data for ˜10 min.
Data Calculation—The fluorescence intensity of wells containing 3 μM of a standard control ROMK inhibitor of the present invention was used to define the ROMK-sensitive component of thallium flux. Fluorescence in the presence of test compounds was normalized to control values to provide % fluorescence change.
Take `Cc1cc2c(cc1C(O)CN1CCC3(CC1)CCN(c1ccc(C#N)cn1)C3)COC2=O` (single isomer, unassigned) [Example 24A, 6-(8-(2-Hydroxy-2-(6-methyl-1-oxo-1,3-dihydroisobenzofuran-5-yl)ethyl)-2,8-diazaspiro[4.5]decan-2-yl)nicotinonitrile]: the IC50 turned out to be 17.6 nM.
As for `Cc1cc2c(cc1C(O)CN1CCC3(CC1)CCN(c1ccc(C#N)cn1)C3)COC2=O` (single isomer, unassigned) [Example 24B, 6-(8-(2-Hydroxy-2-(6-methyl-1-oxo-1,3-dihydroisobenzofuran-5-yl)ethyl)-2,8-diazaspiro[4.5]decan-2-yl)nicotinonitrile], the IC50 amounted to 31.4 nM.
Under `Cc1c([C@@H](O)CN2CCC3(CC2)CC(=O)N(c2ccc(C#N)cn2)C3)ccc2c1COC2=O` [Example 1, (R)-6-(8-(2-hydroxy-2-(4-methyl-1-oxo-1,3-dihydroisobenzofuran-5-yl)ethyl)-3-oxo-2,8-diazaspiro[4.5]decan-2-yl)nicotinonitrile] stands 10.5 nM.
On to `Cc1cc2c(cc1C(O)CN1CCC3(CC1)CC(=O)N(c1ccc(C#N)cn1)C3)COC2=O` (stereo not drawn) [Example 2, 6-(8-(2-hydroxy-2-(6-methyl-1-oxo-1,3-dihydroisobenzofuran-5-yl)ethyl)-3-oxo-2,8-diazaspiro[4.5]decan-2-yl)nicotinonitrile], for which the IC50 was found to be 23 nM.
Turning to `Cc1c([C@@H](O)CN2CCC3(CC2)CCN(c2ccc(C#N)cn2)C3)ccc2c1COC2=O` [Example 3, (R)-6-(8-(2-hydroxy-2-(4-methyl-1-oxo-1,3-dihydroisobenzofuran-5-yl)ethyl)-2,8-diazaspiro[4.5]decan-2-yl)nicotinonitrile], the IC50 came out at 10 nM.
As for `Cc1c(CCN2CCC3(CC2)CC(=O)N(c2ccc(C#N)cn2)C3)ccc2c1COC2=O` [Example 4, 6-(8-(2-(4-methyl-1-oxo-1,3-dihydroisobenzofuran-5-yl)ethyl)-3-oxo-2,8-diazaspiro[4.5]decan-2-yl)nicotinonitrile], the 50% inhibitory concentration (IC50) was found to be 12 nM.
Take `Cc1c([C@@H](O)CN2CCC3(CC2)CCN(c2ccc(C#N)cn2)C3=O)ccc2c1COC2=O` [Example 5, 6-{8-[(2R)-2-hydroxy-2-(4-methyl-1-oxo-1,3-dihydro-2-benzofuran-5-yl)ethyl]-1-oxo-2,8-diazaspiro[4.5]dec-2-yl}pyridine-3-carbonitrile]: the IC50 was found to be 37 nM.
Regarding `Cc1c([C@@H](O)CN2CCC3(CC2)CC(=O)N(c2ccc(-n4cnnn4)cn2)C3)ccc2c1COC2=O` [Example 6, (R)-2-(5-(1H-tetrazol-1-yl)pyridin-2-yl)-8-(2-hydroxy-2-(4-methyl-1-oxo-1,3-dihydroisobenzofuran-5-yl)ethyl)-2,8-diazaspiro[4.5]decan-3-one], the IC50 is 92.5 nM.
On to `COc1cc(N2CCC3(CCN(C[C@H](O)c4ccc5c(c4C)COC5=O)CC3)C2)ncc1C#N` [Example 7, (R)-6-(8-(2-Hydroxy-2-(4-methyl-1-oxo-1,3-dihydroisobenzofuran-5-yl)ethyl)-2,8-diazaspiro[4.5]decan-2-yl)-4-methoxynicotinonitrile], for which the IC50 worked out at 21.5 nM.
For `Cc1c([C@@H](O)CN2CCC3(CC2)CCN(c2cncc(C#N)c2)C3)ccc2c1COC2=O` [Example 12, (R)-5-(8-(2-Hydroxy-2-(4-methyl-1-oxo-1,3-dihydroisobenzofuran-5-yl)ethyl)-2,8-diazaspiro[4.5]decan-2-yl)nicotinonitrile] the value was 33 nM.
For the compound `Cc1c([C@@H](O)CN2CCC3(CC2)CCN(c2cc(C#N)ccn2)C3)ccc2c1COC2=O` [Example 13, (R)-2-(8-(2-Hydroxy-2-(4-methyl-1-oxo-1,3-dihydroisobenzofuran-5-yl)ethyl)-2,8-diazaspiro[4.5]decan-2-yl)isonicotinonitrile], the IC50 came out at 26 nM.
For the compound `Cc1c([C@@H](O)CN2CCC3(CC2)CC(=O)N(c2ccc(C#N)cc2)C3)ccc2c1COC2=O` [Example 14, (R)-4-(8-(2-Hydroxy-2-(4-methyl-1-oxo-1,3-dihydroisobenzofuran-5-yl)ethyl)-3-oxo-2,8-diazaspiro[4.5]decan-2-yl)benzonitrile], the IC50 is 15 nM.
Under `Cc1c([C@@H](O)CN2CCC3(CC2)CCN(c2ncc(-n4cnnn4)cn2)C3)ccc2c1COC2=O` [Example 15, (R)-5-(2-(2-(5-(1H-tetrazol-1-yl)pyrimidin-2-yl)-2,8-diazaspiro[4.5]decan-8-yl)-1-hydroxyethyl)-4-methylisobenzofuran-1(3H)-one] stands 57 nM; under `COc1cc(N2CC3(CCN(C[C@H](O)c4ccc5c(c4C)COC5=O)CC3)CC2=O)ccc1C#N` [Example 16, (R)-4-(8-(2-Hydroxy-2-(4-methyl-1-oxo-1,3-dihydroisobenzofuran-5-yl)ethyl)-3-oxo-2,8-diazaspiro[4.5]decan-2-yl)-2-methoxybenzonitrile], 51 nM; under `Cc1c(CCN2CCC3(CC2)CCN(c2ccc(-c4ncon4)cn2)C3)ccc2c1COC2=O` [Example 17, 5-(2-(2-(5-(1,2,4-oxadiazol-3-yl)pyridin-2-yl)-2,8-diazaspiro[4.5]decan-8-yl)ethyl)-4-methylisobenzofuran-1(3H)-one], 190 nM.
Turning to `Cc1c([C@@H](O)CN2CCC3(CC2)CCN(c2ccc(C#N)nn2)C3)ccc2c1COC2=O` [Example 18, (R)-6-(8-(2-Hydroxy-2-(4-methyl-1-oxo-1,3-dihydroisobenzofuran-5-yl)ethyl)-2,8-diazaspiro[4.5]decan-2-yl)pyridazine-3-carbonitrile], the IC50 was 156 nM.
`CC1Cc2cc(C(O)CN3CCC4(CC3)CCN(c3ccc(C#N)cn3)C4)ccc2C(=O)O1` [Example 21, 6-(8-(2-Hydroxy-2-((R)-3-methyl-1-oxoisochroman-6-yl)ethyl)-2,8-diazaspiro[4.5]decan-2-yl)nicotinonitrile]: the IC50 amounted to 50.1 nM.
On to `Cc1c([C@@H](O)CN2CCC3(CC2)CCN(c2ccc(S(C)(=O)=O)cn2)C3)ccc2c1COC2=O` [Example 22, (R)-5-(1-Hydroxy-2-(2-(5-(methylsulfonyl)pyridin-2-yl)-2,8-diazaspiro[4.5]decan-8-yl)ethyl)-4-methylisobenzofuran-1(3H)-one], for which the IC50 came out at 41.1 nM.
Under `Cc1cc(N2CCC3(CCN(C[C@H](O)c4ccc5c(c4C)COC5=O)CC3)C2)cnc1S(C)(=O)=O` [Example 23, (R)-5-(1-Hydroxy-2-(2-(5-methyl-6-(methylsulfonyl)pyridin-3-yl)-2,8-diazaspiro[4.5]decan-8-yl)ethyl)-4-methylisobenzofuran-1(3H)-one] stands 135 nM; under `N#Cc1ccc(N2CCC3(CCN(CC(O)c4cc5c(cc4C4CC4)C(=O)OC5)CC3)C2)nc1` (stereo not drawn) [Example 25, 6-(8-(2-(6-Cyclopropyl-1-oxo-1,3-dihydroisobenzofuran-5-yl)-2-hydroxyethyl)-2,8-diazaspiro[4.5]decan-2-yl)nicotinonitrile], 74.4 nM; under `N#Cc1ccc(N2CCC3(CCN(CC(O)c4ccc5c(c4C4CC4)COC5=O)CC3)C2)nc1` (stereo not drawn) [Example 26, 6-(8-(2-(4-Cyclopropyl-1-oxo-1,3-dihydroisobenzofuran-5-yl)-2-hydroxyethyl)-2,8-diazaspiro[4.5]decan-2-yl)nicotinonitrile], 458 nM.

Source of the values: patent US9751881B2, “Inhibitors of the renal outer medullary potassium channel” (Merck Sharp & Dohme Corp., priority 2013, dated 2017).
